What was measured:
FG-4592 + Dasatinib = compound: Cc1nc(C(=O)NCC(=O)O)c(O)c2ccc(Oc3ccccc3)cc12 [FG-4592] + Cc1nc(Nc2ncc(C(=O)Nc3c(C)cccc3Cl)s2)cc(N2CCN(CCO)CC2)n1 [Dasatinib] (partner 0.075 µM); assay: relative viability (nuclei count vs DMSO), 5 days (fraction); higher = more cells survive
How it was run: (§1)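 Lung cancer cell lines, seeded in 1536-well plates, were treated the following day by pin tool with a single drug or with five library-drug doses (not always all listed) in √10 steps on top of a fixed anchor-drug dose. Cells were fixed and nuclei stained in one step after 5 days, and nuclei were counted. Relative viability is the nuclei count for treated wells divided by that for vehicle wells, reported as medians of duplicate plates.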

IU1-47 + Trametinib = compound: CC1=CC(=C(N1C2=CC=C(C=C2)Cl)C)C(=O)CN3CCCCC3 [IU1-47] + CC(=O)Nc1cccc(-n2c(=O)n(C3CC3)c(=O)c3c(Nc4ccc(I)cc4F)n(C)c(=O)c(C)c32)c1 [Trametinib] (partner 0.02 µM); assay: as above
How it was run: as §1

| Cell Line | relative viability (FG-4592 + Dasatinib; first compound 0.08 µM) | relative viability (FG-4592 + Dasatinib; first compound 0.253 µM) | relative viability (FG-4592 + Dasatinib; first compound 0.8 µM) | relative viability (FG-4592 + Dasatinib; first compound 2.53 µM) | relative viability (FG-4592 + Dasatinib; first compound 8 µM) | relative viability (IU1-47 + Trametinib; first compound 0.08 µM) | relative viability (IU1-47 + Trametinib; first compound 0.253 µM) | relative viability (IU1-47 + Trametinib; first compound 0.8 µM) | relative viability (IU1-47 + Trametinib; first compound 2.53 µM) | relative viability (IU1-47 + Trametinib; first compound 8 µM) |
| --- | --- | --- | --- | --- | --- | --- | --- | --- | --- | --- |
| RERF-LC-KJ | 0.91 | 0.701 | 0.739 | 0.836 | 0.678 | 0.845 | 0.883 | 0.998 | 1.1 | 0.799 |
| NCI-H23 | 0.841 | 0.669 | 0.706 | 0.694 | 0.862 | 0.5 |  | 0.305 | 0.35 | 0.38 |
| HCC-366 | 0.624 | 0.607 | 0.339 | 0.573 | 0.414 | 0.402 | 0.431 | 0.394 | 0.423 | 0.323 |
| EMC-BAC-2 | 0.374 | 0.361 | 0.274 | 0.311 | 0.296 | 0.978 | 0.948 | 0.942 | 1 | 0.946 |
| NCI-H2405 | 0.218 |  | 0.231 | 0.184 | 0.204 | 0.69 | 0.702 | 0.762 | 0.672 | 0.622 |
| NCI-H358 | 0.16 | 0.19 | 0.162 | 0.145 | 0.156 | 0.129 | 0.13 | 0.128 | 0.135 | 0.121 |
| NCI-H1944 | 0.251 | 0.207 | 0.177 | 0.199 | 0.202 | 0.453 | 0.473 | 0.414 | 0.386 | 0.415 |
| NCI-H2342 | 0.312 | 0.281 | 0.316 | 0.341 | 0.311 | 0.85 | 0.882 | 1.05 | 0.973 | 0.89 |
| EPLC-272H | 0.389 | 0.302 | 0.251 | 0.412 | 0.334 | 0.259 | 0.28 | 0.264 |  | 0.258 |
| NCI-H1915 | 0.324 | 0.283 | 0.286 | 0.31 | 0.257 | 0.296 | 0.288 | 0.28 | 0.3 | 0.324 |
| NCI-H596 | 0.573 | 0.736 | 0.418 | 0.537 | 0.562 | 0.765 |  | 0.779 | 0.834 | 0.677 |
| NCI-H322M | 0.248 | 0.249 | 0.219 | 0.245 | 0.224 | 0.547 | 0.487 | 0.503 | 0.464 | 0.55 |
| NCI-H2228 | 0.569 | 0.411 | 0.548 | 0.475 | 0.489 | 0.614 | 0.415 | 0.699 | 0.454 | 0.399 |
| NCI-H522 | 0.887 | 0.892 | 0.801 | 0.843 | 0.829 | 0.826 | 0.747 | 0.708 | 0.715 | 0.865 |
| NCI-H647 | 0.186 | 0.202 | 0.145 | 0.172 | 0.183 | 0.459 | 0.432 | 0.489 | 0.405 | 0.443 |
| SK-MES-1 | 0.534 | 0.434 | 0.351 | 0.365 | 0.34 | 0.585 | 0.606 | 0.567 | 0.629 | 0.584 |
| NCI-H2170 | 0.592 | 0.478 | 0.412 | 0.59 | 0.497 | 0.991 | 0.913 | 1 | 0.9 | 0.638 |

Source: the supplement of paper PMC10307832
